What was measured:
[1] = Ciclopirox olamine solubility in Pluronic F127NF / cyclodextrin systems; format: physicochemical; details: systems with Pluronic F127NF, HPB or MBCD; 25° C.
Procedure: Dispersions of Pluronic F127NF (0, 10 and 15%) were prepared incorporating hydroxypropyl-β-cyclodextrin or partially methylated β-cyclodextrin at concentrations of 0, 0.5% and 10%. Ciclopirox olamine was added in amounts that far exceeded its aqueous solubility and was stirred at 25° C. for a week. The amount of dissolved ciclopirox was determined spectrophotometrically after filtering the dispersions. Pluronic F127NF dispersions containing 10% of hydroxypropyl-β-cyclodextrin or partially methylated β-cyclodextrin (5% or 10%) and N-acetylcysteine (5-10%) or urea (10-20%) has been studied.

[2] = Penetration of ciclopirox olamine through calf hoof, Franz-Chien cells; format: in vitro ADME; details: solutions in the absence of N-acetylcysteine
Procedure: Thermosensitive systems used in penetration studies were prepared as it follows:
1.—Dispersion of the Pluronic F127NF to 20% in cold water with magnetic stirring until complete dissolution.
2.- Ciclopirox olamine was incorporated in adequate quantities for concentrations close to saturation (see FIG. 3). […]
In the formulations prepared with partially methylated β-cyclodextrin, it was incorporated into the system at a concentration of 10% prior to the dissolution of triamcinolone acetonide, allowing soluble increasing doses of the drug (see FIG. 3).
Penetration studies were performed with cylindrical thin slices of calf hoof membrane (0.8-1 mm). The bovine hoof samples were placed using two Teflon adapters between the donor and acceptor compartment of vertical Franz-Chien penetration cells. In the receptor compartment, phosphate buffer (pH 7.4) was added and maintained at 37° C. 1 g of the thermosensitive systems was placed into the […]. […] The medium extracted was replaced with the same amount of buffer. The results were normalized by the diffusion surface and the thickness of the calf hoof slides used.

[3] = Triamcinolone acetonide solubility in Pluronic F127NF / cyclodextrin systems; format: physicochemical; details: systems with Pluronic F127NF, HPB or MBCD; 25° C.
Procedure: Aqueous dispersions of Pluronic F127NF containing a 0.10 and 15%, were prepared by stirring the polymer in water at 4° C. to study the incorporation of the drug. Hydroxypropyl-β-cyclodextrin or partially methylated β-cyclodextrin at concentrations of 0, 0.5% and 10% were also incorporated. Triamcinolone acetonide was added in amounts that far exceeded its aqueous solubility and was stirred at 25° C. for a week. The amount of dissolved triamcinolone was determined spectrophotometrically after filtering the dispersions through a membrane filter of 0.45 micron pore size.

[4] = Penetration of triamcinolone acetonide through calf hoof, Franz-Chien cells; format: in vitro ADME; details: solutions in the absence of N-acetylcysteine
Source text: For the preparation of thermosensitive systems used in penetration studies through the nail we proceeded as it follows:
1.—Dispersion of the Pluronic F127NF at 10 or 20% (depending on the formulation) in cold water with magnetic stirring until complete dissolution.
2.—Incorporation of triamcinolone acetonide in quantities for concentrations close to saturation (see FIG. 1). […]
In the formulations containing partially methylated β-cyclodextrin, it was incorporated into the system at concentrations of 10% prior to the dissolution of triamcinolone acetonide in order to increase aqueous concentration of the drug (see FIG. 1).
To perform the penetration studies, cylindrical thin slices of calf hoof membrane (0.8-1 mm) were used. The bovine hoof samples were placed using two Teflon adapters between the donor and acceptor compartment of vertical Franz-Chien penetration cells. In the receptor compartment, phosphate buffer (pH 7.4) was added and maintained at 37° C. 1 g of the thermosensitive systems was placed into the […]. Samples from receptor solution were collected at scheduled time, determining the concentration of triamcinolone acetonide by HPLC. The results were normalized by the diffusion surface and the thickness of the calf hoof slides used.

SMILES | Effect of N-acetylcysteine or urea on ciclopirox olamine solubility [1] | Diffusion and penetration of ciclopirox olamine through calf hoof [2] | Effect of N-acetylcysteine on triamcinolone acetonide solubility [3] | Penetration of triamcinolone acetonide through calf hoof [4]
Cc1cc(C2CCCCC2)n(O)c(=O)c1 [Ciclopirox olamine] | significantly influences the solubility | did not detect drug diffusion and penetration | – | –
CC1(C)O[C@@H]2C[C@H]3[C@@H]4CCC5=CC(=O)C=C[C@]5(C)[C@@]4(F)[C@@H](O)C[C@]3(C)[C@]2(C(=O)CO)O1 [Triamcinolone acetonide] | – | – | did not alter the solubility | did not detect the penetration

Source: US20130115181A1, “AQUEOUS PHARMACEUTICAL SYSTEM FOR THE ADMINISTRATION OF DRUGS TO THE NAILS” (UNIVERSIDADE DE SANTIAGO DE COMPOSTELA, priority 2010, published 2013)
